In patent US9937145B2, “Sulfamate derivative compound for use in preventing or treating epilepsy” (Bio-Pharm Solutions Co., Ltd., priority 2013, dated 2018):

Assays:
Assay type in all cases: in vivo
[1] = system: male SD rats; assay: MES test (anti-epilepsy activity), rats, oral (rMES po); conditions: for ED50: Rattus norvegicus, rats, at peak time
Procedure: (§1) Biological Experimental Example. 1: Measurement of Anti-Epilepsy Activity (MES-Test)
(§2) In the MES test (Ref., G. Villetti et al. Neuropharmacology 40(2001) 866-878), an electrical stimulus (mice: 50 mA, 60 Hz, 0.2 sec, and rats: 150 mA, 60 Hz, 0.2 sec in the test animal) supplied by an 11 A Shocker (IITC Life Science Company) was delivered through corneal electrodes. All mice or rats assigned to any electroshock at peak time were treated with each test compound sample which was dissolved in 20% tween 80 prepared by saline solvent applied orally before the test. […] Three doses of the test sample were administered orally to 9-18 animals (3-6 mice per dose) for evaluating the respective doses at which 50% of the animals were protected from seizure (ED50). The ED50 value (median effective close) was calculated by Litchfield and Wicoxon log-probit method which is a dose-response relationship. Experimental animals, male ICR mice and male SD rats, were purchased from OrientBio, Samtako, or Nara Biotech, Korea, and housed in cages (4-5 mice or 3 rats per cage) for 4-5 days. The range of mice body weight was between 19 and 25 grams and range of rats body weight was between 100 and 130 grams.
(§3) The obtained results are shown as mean±sem. The difference between the groups was statistically analyzed by ANOVA, and then further examined by Dunnett's test or Bonferroni test. If p is less than 0.05, it was determined that the difference between the groups had statistical significance.
(§4) The results of anti-epileptic activity of the sulfamate derivative compounds measured in the above Experimental Example are shown in the following Tables 4 and 5.

[2] = system: male ICR mice; assay: MES test (anti-epilepsy activity), mice, oral (mMES po); conditions: Mus musculus; for ED50: mice, at peak time
Procedure: as §1, §2, §3, §4

[3] = system: Male Sprague-Dawley rats; assay: Lithium-pilocarpine induced epilepsy test (LI-PILO), prevention test, i.p.; conditions: for ED50: ip, at peak time, read-out: Anti-epileptogenesis (rat/ip) ED50(mg/kg); for ED50 / Anti-epileptogenesis (rat/ip) Peak Time: rat, prevention; for Anti-epileptogenesis (rat/ip) Protection %: 6 rats
Procedure: (§5) Biological Experimental Example 2: Lithium-Pilocarpine Induced Epilepsy Test (LI-PILO Test)
(§6) Male Sprague-Dawley rats (purchased from Orient Bio Inc. Korea) of body weight 175 grams were used for these studies and 3 rats per cage were housed for 4-5 days. On the day prior to SE, rats received 127 mg/kg lithium chloride (Sigma, St. Louis, Mo., U.S.A.) intraperitoneally (i.p.). Approximately 18-20 h following this treatment, rats were given an i.p. injection of 43 mg/kg pilocarpine (Sigma). An i.p. injection of 2 mg/kg methyl-scopolamine (Sigma) was administered 30 min prior to pilocarpine to block the effects of the muscarinic agonist on peripheral cholinergic receptors. Test drugs were dissolved in 20% tween80 (Sigma).
The drugs were administered intraperitoneally (i.p.) in a volume of 2 ul/g body weight. Pharmacological effects of all of the test materials were evaluated to compare test groups (n=6) with a control group (n=6). Control group was administered vehicle only. The efficacy was measured 0.5, 1, 2, or 4 hours after the administration of the test material. The time point that the most animals were protected was defined as peak time and the ED50 was determined at peak time. The animals were then transferred to observation cages and observed continuously for 90 min. Seizure was elicited in approximately 95% of the control group. Protection was defined as complete absence of seizure grade 3˜5 (Racine scale; Racine, 1972) over the 90-min observation period. The effective dose of the compound necessary to protect 50% of the animals against seizures compared to controls (i.e. ED50) was determined by a curve fitting program (Excel 2007, Microsoft).
(§7) The results of Lithium-pilocarpine induced epilepsy test of the sulfamate derivative compounds measured in the above Experimental Example are shown in the following Tables 6.

[4] = system: Male Sprague-Dawley rats; assay: as above; conditions: injection amount 30 mg/kg, 3 rats, 1 h
[5] = system: Male Sprague-Dawley rats; assay: Lithium-pilocarpine induced epilepsy test (LI-PILO), intervention, i.v. at SE onset; conditions: iv; rat, administered at SE onset; read-out: Therapeutic effect (min, rat/lv) ED50(mg/kg)
Procedure: as §5, §6
The drugs were administered intravenously (i.v.) in a volume of 2 ul/g body weight at SE onset. Pharmacological effects of all of the test materials were evaluated to compare test groups (n=3-6) with a control group (n=3-6). Control group was administered vehicle only. The animals were then transferred to observation cages and observed continuously for 90 min. Seizure was elicited in approximately 95% of the control group. […]
as §7

[6] = injection amount 150 mg/kg, 2 h

Row | SMILES | ED50 [1] [mg/kg] | ED50 [2] [mg/kg] | ED50 [3] [mg/kg] | Anti-epileptogenesis (rat/ip) Peak Time [3] [h] | rMES(po) Protection % ([1]; injection amount 50 mg/kg, 6 rats) | responders at 50 mg/kg ([2]; injection amount 50 mg/kg, 4 mice, read-out: mMES(po) Protection %) [%] | Anti-epileptogenesis (rat/ip) Protection % ([3]; injection amount 100 mg/kg, 1 h) | Anti-epileptogenesis (rat/ip) Protection % ([3]; injection amount 100 mg/kg, 2 h) | Anti-epileptogenesis (rat/ip) Protection % [3, 6] | Anti-epileptogenesis (rat/ip) Protection % [4] | responders at 100 mg/kg ([2]; injection amount 100 mg/kg, 3 mice, read-out: mMES(po) Protection %) [%] | ED50 [5] [mg/kg]
1 | CC1(C)O[C@@H](COS(N)(=O)=O)[C@H](c2ccccc2I)O1 [Example 28, ((4S, 5S)-5-(2-iodophenyl)-2,2-dimethyl-1,3-dioxolan-4-yl)methyl sulfamate] | 32.7 | 15 | 154 | 1 | – | – | – | – | – | – | – | –
2 | CC1(C)O[C@H](c2ccccc2F)[C@@H](COS(N)(=O)=O)O1 [Example 15, ((4R, 5R)-5-(2-fluorophenyl)-2,2-dimethyl-1,3-dioxolan-4-yl)methyl sulfamate] | – | – | – | – | 50^b(66.6%) | 100 | (16.6%) | (50%) | 150^b(16.6%) | – | – | –
3 | CC1(C)O[C@H](c2ccccc2Cl)[C@@H](COS(N)(=O)=O)O1 [Example 1, ((4R,5R)-5-(2-chlorophenyl)-2,2-dimethyl-1,3-dioxolan-4-yl)methyl sulfamate] | 1.2 | 6.5 | – | 2 | – | – | – | – | (50%) | – | – | –
4 | Cc1ncsc1[C@H]1OC(C)(C)O[C@@H]1COS(N)(=O)=O [Example 167, ((4R, 5S)-2,2-dimethyl-5-(4-methylthiazol-5-yl)-1,3-dioxolan-4-yl)methylsulfamate] | – | – | – | 1 | – | – | – | – | – | 30^a(100%) | 100 | –
5 | CC1(C)O[C@@H](COS(N)(=O)=O)[C@H](c2ccccc2Cl)O1 [Example 2, ((4S, 5S)-5-(2-chlorophenyl)-2,2-dimethyl-1,3-dioxolan-4-yl)methyl sulfamate] | 3.5 | 9 | 97.1 | 4 | – | – | – | – | – | – | – | 89
